Read-outs that look alike come from different tables or passages of the source.
How the values were obtained:
TEAD = TEAD reporter assay (Hippo Pathway TEAD Reporter - MCF7 cell line, luciferase); assay type: cell-based, human; settings: Homo sapiens
From the text: TEAD inhibition can be assayed using Hippo Pathway TEAD Reporter—MCF7 Cell Line (BPS Bioscience, Catalog #: 60618).
The TEAD Reporter—MCF7 cell line contains the firefly luciferase gene under the control of TEAD responsive elements stably integrated into the human breast cancer cell line, MCF7. Inside the cells, basal unphosphorylated YAP/TAZ remains in the nucleus and induces the constitutive expression of luciferase reporter. The cell line is validated for the inhibition of the expression of luciferase reporter by the activators of the Hippo pathway.
• 1) Harvest TEAD Reporter—MCF7 cells from culture in growth medium and seed cells at a density of 35,000 cells per well into white clear-bottom 96-well microplate in 45 μl of assay medium. • 2) Incubate cells at 37° C. in a CO2 incubator for overnight. • 3) Dilute the activators (H2O2 or okadaic acid) stock in assay medium. Add 5 μl of diluted activators to the wells. The final concentration of DMSO in assay medium is 0.1%. • 4) Add 5 μl of assay medium with same concentration of DMSO without activator to control wells. • 5) Add 50 μl of assay medium with DMSO to cell-free control wells (for determining background luminescence). • 6) Set up each treatment in at least triplicate. • 7) Incubate cells at 37° C. in a CO2 incubator for 5-6 hours. • 8) Perform luciferase assay using the ONE-Step™ Luciferase Assay System following the protocol provided: Add 100 μl of ONE-Step™ Luciferase reagent per well and rock at room temperature for ˜15 minutes. Measure luminescence using a luminometer. • 9) Data Analysis: Obtain the background-subtracted luminescence by subtracting the average background luminescence (cell-free control wells) from the luminescence reading of all wells.
(§1) Certain compounds were tested in TEAD reporter assay, and in H226 and H28. A: EC50<0.1 uM; B: 0.1 uM≤EC50≤0.5 uM; C: EC50>0.5 uM.

H226 = assay: Anti-proliferation assay in H226 cells; assay type: cell-based, human; settings: Homo sapiens
Description: as §1
(§2) Individual cell lines were grown in medium according to supplier instructions and seeded into 96-well plates at a density that ensured logarithmic growth over 72 hours. TEAD inhibitor compounds were administered to cells at a top concentration of 10 μm and subsequently a 10 point 3-fold serial dilution was conducted. After 72 hours, proliferation was quantified using Cell TITERGLO™ (Promega, Inc.) and compared to vehicle control. IC50 and EC50 values were generated using XLFit curve fitting software.

H28 = assay: Anti-proliferation assay in H28 cells; assay type: cell-based; settings: Homo sapiens, NCI-H28
Description: as §1, §2
The effect of isomer 2 of compound I-12 on cell proliferation is dependent on the presence of a Hippo/NF2 mutation. No effect is seen by isomer 2 of compound I-12 on the NF2 wild-type H28 cell line.

[1] = Mouse pharmacokinetics study; assay type: in vivo; settings: BALB/c mice, 10 mg/kg oral gavage, 5% DMS/95% PEG400, plasma
Description: Formulated compounds were administered intravenously or orally via gavage to BALB/c mice. Typically, at 0.167, 0.5, 1, 2, 4, 6, 12, and 24 hours post-dose, blood was collected and processed to plasma by centrifugation and stored at −80° C. until analysis. Internal standard was added to each sample prior to protein precipitation with acetonitrile or TCA. The precipitates were filtered through a filter plate and the samples were analyzed by LC/MS/MS. A standard curve was prepared in plasma from typically from 1.0 ng/mL to 3000 ng/mL and processed in the same manner as the samples. Sample analysis was typically performed on a suitable LC/MS/MS system fitted with an analytical UPLC column and compounds eluted from the analytical column with a gradient from 30-95% 0.1% formic acid (v/v) in ACN: 0.1% formic acid (v/v) in water. Mass spectrometric detection of test compound and the internal standard was performed by […] in positive mode. The pharmacokinetics of each compound were analyzed by Phoenix WinNonlin software (Pharsight, St. Louis, Mo.) via noncompartmental analysis. FIG. 4 depicts pharmacokinetic (PK) properties of isomer 1 of compound I-186 following dosing in BALB/c mice.

[2] = MCF7, TEAD Reporter - MCF7 cells, read-out: TEAD Reporter Assay EC50
[3] = NCI-H226, H226 cells, read-out: H226 EC50

C=CC(=O)NC1CCN(Cc2ccccc2C(F)(F)F)CC1 [Compound I-49, N-[1-[[2-(trifluoromethyl)phenyl]methyl]-4-piperidyl]prop-2-enamide]
EC50 (TEAD; [2]): > 0.5 µM
EC50 (H226; [3]): > 0.5 µM
EC50 (H28): > 500 nM

C=CC(=O)NC1CCN(Cc2ccc(C(F)(F)F)cc2)CC1 [Compound I-46, N-[1-[[4-(Trifluoromethyl)phenyl]methyl]-4-piperidyl]prop-2-enamide]
EC50 (TEAD; [2]): 0.1 to 0.5 µM
EC50 (H226; [3]): 0.1 to 0.5 µM
EC50 (H28): > 500 nM
AUC(0-t) ([1]; mouse): 1140 ng·h/mL
Cmax ([1]; mouse, read-out: Cmax): 735 ng/mL

C=CC(=O)NC1[C@H]2CN(Cc3ccc(C(F)(F)F)cc3)C[C@@H]12 (stereo partly drawn) [Compound I-69, N-[(1R,5S)-3-[[4-(Trifluoromethyl)phenyl]methyl]-3-azabicyclo[3.1.0]hexan-6-yl]prop-2-enamide]
EC50 (TEAD; [2]): < 0.1 µM
EC50 (H226; [3]): < 0.1 µM
AUC(0-t) ([1]; mouse): 1240 ng·h/mL
Cmax ([1]; mouse, read-out: Cmax): 1160 ng/mL

C=CC(=O)Nc1ccc(C)c(Nc2cccc(C(F)(F)F)c2)c1 [Compound I-33, N-[4-Methyl-3-[3-(trifluoromethyl)anilino]phenyl]prop-2-enamide]
EC50 (TEAD; [2]): < 0.1 µM
EC50 (H226; [3]): < 0.1 µM
EC50 (H28): > 500 nM

C=CC(=O)Nc1ccc(C)c(Oc2cc(C(F)(F)F)ccn2)c1 [Compound I-31, N-[4-methyl-3-[[4-(trifluoromethyl)-2-pyridyl]oxy]phenyl]prop-2-enamide]
EC50 (TEAD; [2]): < 0.1 µM
EC50 (H226; [3]): < 0.1 µM
EC50 (H28): > 500 nM

C=CC(=O)NC1CCN([C@H](C)c2ccc(C(F)(F)F)cc2)CC1 [Compound I-62, N-[1-[(1R)-1-[4-(Trifluoromethyl)phenyl]ethyl]-4-piperidyl]prop-2-enamide]
EC50 (TEAD; [2]): < 0.1 µM
EC50 (H226; [3]): < 0.1 µM
AUC(0-t) ([1]; mouse): 368 ng·h/mL
Cmax ([1]; mouse, read-out: Cmax): 345 ng/mL

C=CC(=O)Nc1ccc(Br)c(Nc2cccc(C(F)(F)F)c2)c1 [Compound I-36, N-[4-bromo-3-[3-(trifluoromethyl)anilino]phenyl]prop-2-enamide]
EC50 (TEAD; [2]): < 0.1 µM
EC50 (H226; [3]): < 0.1 µM
EC50 (H28): > 500 nM

C=CC(=O)N[C@H]1[C@@H]2CCN(Cc3ccc(C(F)(F)F)cc3)C[C@@H]21 [Compound I-208, N-[(1R,6R,7S)-4-[[4-(trifluoromethyl)phenyl]methyl]-4-azabicyclo[4.1.0]heptan-7-yl]prop-2-enamide]
AUC(0-t) ([1]; mouse): 226 ng·h/mL
Cmax ([1]; mouse, read-out: Cmax): 318 ng/mL

C=CC(=O)N1CC[C@@H](NCc2ccc(C(F)(F)F)cc2)C1 [Compound I-211, 1-[(3R)-3-[[4-(trifluoromethyl)phenyl]methylamino]pyrrolidin-1-yl]prop-2-en-1-one]
AUC(0-t) ([1]; mouse): 1260 ng·h/mL
Cmax ([1]; mouse, read-out: Cmax): 1250 ng/mL

C=CC(=O)Nc1ccc(C)c(Oc2ccc(Cl)cc2)c1 [Compound P-5]
AUC0-last [1]: 397 ng·h/mL
Cmax [1]: 246 ng/mL

C=CC(=O)NC1CCN(Cc2ccc(C(F)(F)F)cc2)c2ccccc21 (stereo in doubt) [Compound I-203, N-[(4R)-1-[[4-(Trifluoromethyl)phenyl]methyl]-3,4-dihydro-2H-quinolin-4-yl]prop-2-enamide]
AUC(0-t) ([1]; mouse): 275 ng·h/mL
Cmax ([1]; mouse, read-out: Cmax): 63.3 ng/mL

C=CC(=O)Nc1ccc(-c2cn(C)cn2)c(Nc2cccc(C(F)(F)F)c2)c1 [Compound I-40, N-[4-(1-methylimidazol-4-yl)-3-[3-(trifluoromethyl)anilino]phenyl]prop-2-enamide]
EC50 (TEAD; [2]): < 0.1 µM
EC50 (H226; [3]): < 0.1 µM
EC50 (H28): > 500 nM

C=CC(=O)NC1CCN(S(=O)(=O)c2ccc(C(F)(F)F)cc2)CC1 [Compound I-50, N-[1-[4-(trifluoromethyl)phenyl]sulfonyl-4-piperidyl]prop-2-enamide]
EC50 (TEAD; [2]): > 0.5 µM
EC50 (H226; [3]): > 0.5 µM
EC50 (H28): > 500 nM

C=CC(=O)Nc1cccc(C)c1Oc1ccc(Cl)cc1 [Compound I-28, N-[2-(4-Chlorophenoxy)-3-methyl-phenyl]prop-2-enamide]
EC50 (TEAD; [2]): > 0.5 µM
EC50 (H226; [3]): > 0.5 µM
EC50 (H28): > 500 nM

C=CC(=O)Nc1ccc(C)c(Oc2cncc(C(F)(F)F)c2)c1 [Compound I-30, N-[4-Methyl-3-[[5-(trifluoromethyl)-3-pyridyl]oxy]phenyl]prop-2-enamide]
EC50 (TEAD; [2]): < 0.1 µM
EC50 (H226; [3]): < 0.1 µM
EC50 (H28): > 500 nM

C=CC(=O)Nc1ccc(C)c(Nc2ccc(Cl)cc2)c1 [Compound I-27, N-[3-(4-Chloroanilino)-4-methyl-phenyl]prop-2-enamide]
EC50 (TEAD; [2]): < 0.1 µM
EC50 (H226; [3]): < 0.1 µM
EC50 (H28): > 500 nM

C=CC(=O)NC1CCN(c2cccc3ccccc23)CC1 [Compound I-66, N-[1-(1-Naphthyl)-4-piperidyl]prop-2-enamide]
EC50 (TEAD; [2]): > 0.5 µM
EC50 (H226; [3]): > 0.5 µM

C=CC(=O)Nc1cc(Oc2cccc(C(F)(F)F)c2)c2ccccc2c1 [Compound I-29, N-[4-[3-(Trifluoromethyl)phenoxy]-2-naphthyl]prop-2-enamide]
EC50 (TEAD; [2]): < 0.1 µM
EC50 (H226; [3]): 0.1 to 0.5 µM
EC50 (H28): > 500 nM

C=CC(=O)Nc1cccc(N2CCCc3cc(C(F)(F)F)ccc32)c1 [Compound I-43]
EC50 (TEAD; MCF7, read-out: TEAD Reporter Assay EC50 (uM)): > 0.5 µM
EC50 (H226; NCI-H226, read-out: H226 EC50 (uM)): > 0.5 µM

C=CC(=O)Nc1ccc(C)c(N(C)c2cccc(C(F)(F)F)c2)c1 [Compound I-35, N-[4-methyl-3-[N-methyl-3-(trifluoromethyl)anilino]phenyl]prop-2-enamide]
EC50 (TEAD; [2]): < 0.1 µM
EC50 (H226; [3]): < 0.1 µM
EC50 (H28): > 500 nM

C=CC(=O)N1CCC(NCc2cccc(C(F)(F)F)c2)CC1 [Compound I-61]
EC50 (TEAD; [2]): > 0.5 µM
EC50 (H226; [3]): > 0.5 µM

C=CC(=O)NC1CCN([C@@H](C)c2ccc(C(F)(F)F)cc2)CC1 [Compound I-63, N-[1-[(1S)-1-[4-(Trifluoromethyl)phenyl]ethyl]-4-piperidyl]prop-2-enamide]
EC50 (TEAD; [2]): 0.1 to 0.5 µM
EC50 (H226; [3]): > 0.5 µM

Reference: patent US11458149B1, “TEAD inhibitors and uses thereof” (Ikena Oncology, Inc., priority 2019, dated 2022)
